From article PMC10327353 (Breast Cancer Research : BCR, 2023)
Several values for one entry are separate records, joined by “and”; a condition that tells them apart may be missing. Equal values may be shown once.

Assay: Phase 1 study: safety and tolerability
Type: in vivo
Procedure: The maximum tolerated dose (MTD) of DZD1516 was defined based on safety data and the Bayesian optimal interval (BOIN) design (Additional file 1). The definition of DLT is provided in Additional file 1.
The AE grading was assessed according to the NCI-Common Terminology Criteria for Adverse Events (CTCAE) (version 5.0) and was monitored until 28 days after the last dose.
Eligible patients received single oral dosing of DZD1516 on Cycle 0 Day 1 (C0D1), followed by a 7-day washout. Twice daily oral dosing (bid) of DZD1516 was commenced from C1D1 in a continuous 21-day cycle until disease progression, unacceptable toxicity, or withdrawal of consent. All doses were taken under fed conditions (within 30 minutes after a meal).
Planned dosing consisted of 25, 50, 100, 200, 300, and 400 mg. Each dose escalation cohort will comprise a minimum of three and a maximum of six evaluable patients (except only one patient in the starting dose cohort). The maximum tolerated dose of DZD1516 was defined according to safety data and the Bayesian optimal interval (BOIN) design. Dose escalation/de-escalation rule with target toxicity rate for the MTD is 0.30 with interval of (0.20, 0.33).
DLTs were any adverse event (AE) not clearly attributable to the patient’s disease, including ≥ grade 4 hematological toxicities present for ≥ 4 days, grade 3 thrombocytopenia with bleeding, or grade 4 thrombocytopenia lasting for > 5 days, ≥ grade 3 non-hematological toxicities that is dose-limiting in the judgment of the investigators. Any other toxicity that is greater than that at baseline, is clinically significant or unacceptable, and is judged to be a DLT by the SRC. Exceptions included alopecia of any grade and isolated grade 3 laboratory change without clinical sequelae or clinical significance.
Safety evaluations were conducted at screening, on Day 1, 8, and 15 of Cycle 1, on Day 1 of each subsequent treatment cycle, at the end-of-treatment visit, and clinically indicated. Safety assessments included clinical laboratory measurements (hematology, chemistry, coagulation, and urinalysis), electrocardiogram (ECG), Echocardiogram/MUGA scan, ECOG performance status, vital signs, and physical examinations.

COc1cc(O[C@H]2CCN(C)CC2(F)F)c2c(Nc3ccc(Oc4ccn5ncnc5c4)c(C)c3)ncnc2c1 [DZD1516]
Decreased appetite, ≥ Grade 3 (300 mg (N = 4)): 0 (0.0) n (%)
Dizziness, Any Grade (300 mg (N = 4)): 1 (25.0) n (%)
Dizziness, ≥ Grade 3 (300 mg (N = 4)): 1 (25.0) n (%)
Drug-related TEAE: Grade 3 (300 mg (N = 4)): 2 (50.0) n (%)
Drug-related TEAE: Leading to death (300 mg (N = 4)): 0 (0.0) n (%)
Drug-related TEAE: Leading to dose reduction (300 mg (N = 4)): 3 (75.0) n (%)
Drug-related TEAE: Leading to treatment discontinuation (300 mg (N = 4)): 0 (0.0) n (%)
Drug-related TEAE: Leading to treatment interruption (300 mg (N = 4)): 2 (50.0) n (%)
Drug-related TEAE: SAE (300 mg (N = 4)): 0 (0.0) n (%)
Fatigue, Any Grade (300 mg (N = 4)): 1 (25.0) n (%)
Fatigue, ≥ Grade 3 (300 mg (N = 4)): 1 (25.0) n (%)
Gastrointestinal disorders, Any Grade (300 mg (N = 4)): 4 (100.0) n (%)
Gastrointestinal disorders, ≥ Grade 3 (300 mg (N = 4)): 1 (25.0) n (%)
General disorders and administration site conditions, Any Grade (300 mg (N = 4)): 3 (75.0) n (%)
General disorders and administration site conditions, ≥ Grade 3 (300 mg (N = 4)): 2 (50.0) n (%)
Headache, Any Grade (300 mg (N = 4)): 4 (100.0) n (%)
Headache, ≥ Grade 3 (300 mg (N = 4)): 0 (0.0) n (%)
Hemoglobin decreased, Any Grade (300 mg (N = 4)): 0 (0.0) n (%)
Hemoglobin decreased, ≥ Grade 3 (300 mg (N = 4)): 0 (0.0) n (%)
Investigations, Any Grade (300 mg (N = 4)): 1 (25.0) n (%)
Investigations, ≥ Grade 3 (300 mg (N = 4)): 0 (0.0) n (%)
Lipase increased, Any Grade (300 mg (N = 4)): 0 (0.0) n (%)
Lipase increased, ≥ Grade 3 (300 mg (N = 4)): 0 (0.0) n (%)
Malaise, Any Grade (300 mg (N = 4)): 1 (25.0) n (%)
Malaise, ≥ Grade 3 (300 mg (N = 4)): 1 (25.0) n (%)
Metabolism and nutrition disorders, Any Grade (300 mg (N = 4)): 3 (75.0) n (%)
Metabolism and nutrition disorders, ≥ Grade 3 (300 mg (N = 4)): 0 (0.0) n (%)
Musculoskeletal and connective tissue disorders, Any Grade (300 mg (N = 4)): 3 (75.0) n (%)
Musculoskeletal and connective tissue disorders, ≥ Grade 3 (300 mg (N = 4)): 1 (25.0) n (%)
Nausea, Any Grade (300 mg (N = 4)): 4 (100.0) n (%)
Nausea, ≥ Grade 3 (300 mg (N = 4)): 1 (25.0) n (%)
Nervous system disorders, Any Grade (300 mg (N = 4)): 4 (100.0) n (%)
Nervous system disorders, ≥ Grade 3 (300 mg (N = 4)): 2 (50.0) n (%)
Participants with any TEAE, Any Grade (300 mg (N = 4)): 4 (100.0) n (%)
Participants with any TEAE, ≥ Grade 3 (300 mg (N = 4)): 3 (75.0) n (%)
Platelet count decreased, Any Grade (300 mg (N = 4)): 0 (0.0) n (%)
Platelet count decreased, ≥ Grade 3 (300 mg (N = 4)): 0 (0.0) n (%)
Proteinuria, Any Grade (300 mg (N = 4)): 1 (25.0) n (%)
Proteinuria, ≥ Grade 3 (300 mg (N = 4)): 0 (0.0) n (%)
Renal and urinary disorders, Any Grade (300 mg (N = 4)): 1 (25.0) n (%)
Renal and urinary disorders, ≥ Grade 3 (300 mg (N = 4)): 0 (0.0) n (%)
Subjects with any TEAE (300 mg (N = 4)): 4 (100.0) n (%)
Subjects with any drug-related TEAE (300 mg (N = 4)): 4 (100.0) n (%)
Vomiting, Any Grade (300 mg (N = 4)): 3 (75.0) n (%)
Vomiting, ≥ Grade 3 (300 mg (N = 4)): 1 (25.0) n (%)
White blood cell count decreased, Any Grade (300 mg (N = 4)): 0 (0.0) n (%)
White blood cell count decreased, ≥ Grade 3 (300 mg (N = 4)): 0 (0.0) n (%)
diarrhea (300 mg cohort): A single case of grade 2 diarrhea
dose-limiting toxicities (DLTs) (300 mg cohort): two out of four patients experienced DLTs
dose-limiting toxicity (DLT) (25–200 mg cohorts): no dose-limiting toxicity (DLT) observed
diarrhea or skin rash (MTD (250 mg) or lower doses): No diarrhea or skin rash of any grade was observed
Alanine aminotransferase increased, Any Grade (Total (N = 23)): 3 (13.0) n (%)
Alanine aminotransferase increased, ≥ Grade 3 (Total (N = 23)): 0 (0.0) n (%)
Anemia, Any Grade (Total (N = 23)): 3 (13.0) n (%)
Anemia, ≥ Grade 3 (Total (N = 23)): 0 (0.0) n (%)
Any TEAE: Grade 3 (Total (N = 23)): 6 n (%) and 6 (26.1) n (%)
Any TEAE: Leading to death (Total (N = 23)): 0 (0.0) n (%)
Any TEAE: Leading to dose reduction (Total (N = 23)): 3 n (%) and 3 (13.0) n (%)
Any TEAE: Leading to treatment discontinuation (Total (N = 23)): 1 (4.3) n (%)
Any TEAE: Leading to treatment interruption (Total (N = 23)): 5 n (%) and 5 (21.7) n (%)
Any TEAE: SAE (Total (N = 23)): 2 (8.7) n (%)
Aspartate aminotransferase increased, Any Grade (Total (N = 23)): 5 (21.7) n (%)
Aspartate aminotransferase increased, ≥ Grade 3 (Total (N = 23)): 0 (0.0) n (%)
Blood and lymphatic system disorders, Any Grade (Total (N = 23)): 3 (13.0) n (%)
Blood and lymphatic system disorders, ≥ Grade 3 (Total (N = 23)): 0 (0.0) n (%)
Blood bilirubin increased, Any Grade (Total (N = 23)): 4 (17.4) n (%)
Blood bilirubin increased, ≥ Grade 3 (Total (N = 23)): 0 (0.0) n (%)
Cardiac disorders, Any Grade (Total (N = 23)): 3 (13.0) n (%)
Cardiac disorders, ≥ Grade 3 (Total (N = 23)): 0 (0.0) n (%)
Constipation, Any Grade (Total (N = 23)): 3 (13.0) n (%)
Constipation, ≥ Grade 3 (Total (N = 23)): 0 (0.0) n (%)
Decreased appetite, Any Grade (Total (N = 23)): 4 (17.4) n (%)
Decreased appetite, ≥ Grade 3 (Total (N = 23)): 0 (0.0) n (%)
Dizziness, Any Grade (Total (N = 23)): 3 (13.0) n (%)
Dizziness, ≥ Grade 3 (Total (N = 23)): 1 (4.3) n (%)
Drug-related TEAE: Grade 3 (Total (N = 23)): 4 n (%) and 4 (17.4) n (%)
Drug-related TEAE: Leading to death (Total (N = 23)): 0 (0.0) n (%)
Drug-related TEAE: Leading to dose reduction (Total (N = 23)): 3 (13.0) n (%)
Drug-related TEAE: Leading to treatment discontinuation (Total (N = 23)): 0 (0.0) n (%)
Drug-related TEAE: Leading to treatment interruption (Total (N = 23)): 3 (13.0) n (%)
Drug-related TEAE: SAE (Total (N = 23)): 1 (4.3) n (%)
Fatigue, Any Grade (Total (N = 23)): 4 (17.4) n (%)
Fatigue, ≥ Grade 3 (Total (N = 23)): 1 (4.3) n (%)
Gastrointestinal disorders, Any Grade (Total (N = 23)): 10 (43.5) n (%)
Gastrointestinal disorders, ≥ Grade 3 (Total (N = 23)): 3 (13.0) n (%)
General disorders and administration site conditions, Any Grade (Total (N = 23)): 8 (34.8) n (%)
General disorders and administration site conditions, ≥ Grade 3 (Total (N = 23)): 2 (8.7) n (%)
Headache, Any Grade (Total (N = 23)): 10 (43.5) n (%)
Headache, ≥ Grade 3 (Total (N = 23)): 0 (0.0) n (%)
Hemoglobin decreased, Any Grade (Total (N = 23)): 7 (30.4) n (%)
Hemoglobin decreased, ≥ Grade 3 (Total (N = 23)): 0 (0.0) n (%)
Investigations, Any Grade (Total (N = 23)): 14 (60.9) n (%)
Investigations, ≥ Grade 3 (Total (N = 23)): 2 (8.7) n (%)
Lipase increased, Any Grade (Total (N = 23)): 3 (13.0) n (%)
Lipase increased, ≥ Grade 3 (Total (N = 23)): 0 (0.0) n (%)
Malaise, Any Grade (Total (N = 23)): 3 (13.0) n (%)
Malaise, ≥ Grade 3 (Total (N = 23)): 1 (4.3) n (%)
Metabolism and nutrition disorders, Any Grade (Total (N = 23)): 11 (47.8) n (%)
Metabolism and nutrition disorders, ≥ Grade 3 (Total (N = 23)): 0 (0.0) n (%)
Musculoskeletal and connective tissue disorders, Any Grade (Total (N = 23)): 7 (30.4) n (%)
Musculoskeletal and connective tissue disorders, ≥ Grade 3 (Total (N = 23)): 2 (8.7) n (%)
Nausea, Any Grade (Total (N = 23)): 6 (26.1) n (%)
Nausea, ≥ Grade 3 (Total (N = 23)): 1 (4.3) n (%)
Nervous system disorders, Any Grade (Total (N = 23)): 14 (60.9) n (%)
Nervous system disorders, ≥ Grade 3 (Total (N = 23)): 2 (8.7) n (%)
Participants with any TEAE, Any Grade (Total (N = 23)): 22 (95.7) n (%)
Participants with any TEAE, ≥ Grade 3 (Total (N = 23)): 6 (26.1) n (%)
Platelet count decreased, Any Grade (Total (N = 23)): 3 (13.0) n (%)
Platelet count decreased, ≥ Grade 3 (Total (N = 23)): 0 (0.0) n (%)
Proteinuria, Any Grade (Total (N = 23)): 4 (17.4) n (%)
Proteinuria, ≥ Grade 3 (Total (N = 23)): 0 (0.0) n (%)
Renal and urinary disorders, Any Grade (Total (N = 23)): 5 (21.7) n (%)
Renal and urinary disorders, ≥ Grade 3 (Total (N = 23)): 0 (0.0) n (%)
Subjects with any TEAE (Total (N = 23)): 22 (95.7) n (%)
Subjects with any drug-related TEAE (Total (N = 23)): 21 (91.3) n (%)
Vomiting, Any Grade (Total (N = 23)): 8 (34.8) n (%)
Vomiting, ≥ Grade 3 (Total (N = 23)): 2 (8.7) n (%)
White blood cell count decreased, Any Grade (Total (N = 23)): 3 (13.0) n (%)
White blood cell count decreased, ≥ Grade 3 (Total (N = 23)): 0 (0.0) n (%)
grade 4 or 5 AEs (all dose levels): No grade 4 or 5 AEs were reported
maximum tolerated dose (MTD) (patients, BID): 250 mg
